A short description of data set [1]: Phase 2 clinical trial PK profile of ZP1848 and metabolites in SBS patients. The format is in vivo. The following applies: human, plasma. As for the experimental part: The study was designed as a randomized, cross-over and double-blinded with three different doses of ZP1848 (10 mg, 1 mg, 0.1 mg) in 16 SBS patients.
The 18 SBS patients (16 patients completed the study) were randomized evenly and in a double-blinded fashion to each of the six cross-over dose level combinations: 10 mg/1 mg, 10 mg/0.1 mg, 1 mg/10 mg, 1 mg/0.1 mg, 0.1 mg/10 mg, 0.1 mg/1 mg of ZP1848. The patients were injected once daily (QD) subcutaneously with the above doses of ZP1848.
Blood samples for PK analysis were collected on several study visits throughout the study period: the study comprised a 1st baseline balance study (4 days), a 1st treatment period (21 days) including a 1st treatment balance study (last 4 days of 1st treatment period), followed by a wash-out period (at least 4 weeks); and a 2nd baseline balance study (4 days), a 2nd treatment period (21 days) including a 2nd treatment balance study (last 4 days of 2nd treatment period) and a follow-up period (at least 4 weeks).
PK sampling was performed at visit 11 (1st treatment, balance study) and visit 17 (second day of 2nd baseline study-after a wash out period), and again at visit 25 (2nd treatment balance study) and at visit 29 (last day of follow-up period).
At day visit 11 and visit 25 a full PK profile in steady state was investigated. PK samples were taken prior to injection of ZP1848, and at the following time points (+/−10 minutes) after trial product administration: 1 h, 2 h, 4 h, 6 h, 8 h, 10 h, 12 h and 24 h. Each PK sample contained 2 mL of blood, resulting in a total of […] blood drawn for PK purposes. The plasma sample was immediately stored at −80° C. after sampling.
Plasma samples were analyzed after immunoaffinity extraction followed by liquid chromatography mass spectrometry (LC-MS/MS). […] Plasma terminal elimination half-life (T½) was determined as In (2)/ke where ke is the magnitude of the slope of the log linear regression of the log concentration versus time profile during the terminal phase.

Data set [2] is described as follows: Phase 1 PK trial of glepaglutide in healthy subjects, half-life of metabolite ZP2469. The conditions noted are these: per subject; for half-life: human, plasma. It counts as in vivo, human. The source says:
A Phase 1, Open-Label, Partially Randomized, 3-Part, Parallel Group Trial to Evaluate the Pharmacokinetic Profile of glepaglutide (ZP1848) After a Single Intravenous Injection and After Multiple Subcutaneous Injections in Healthy Human Subjects A Phase 1 clinical trial to characterize the pharmacokinetic (PK) profiles of glepaglutide (ZP1848) and its primary active metabolites following once-weekly and once daily subcutaneous (SC) injections and after a single intravenous (IV) infusion in healthy subjects was conducted. This included evaluating the pharmacodynamic effects on plasma citrulline levels following SC dosing in healthy subjects. The trial confirmed the feasibility of dosage regimes in which GLP-2 analogues are administered to patients in weekly dosage regimes and compare weekly dosage regimes with daily dosing.
The trial design was a single-center, open-label, partially randomized, 3-part, parallel group trial to characterize the PK profile of glepaglutide administered by SC injection once daily for 7 days (Part 1), SC injection once weekly for 6 weeks (Part 2), and as a single IV infusion (Part 3) in healthy subjects.
Group A: 1 mg glepaglutide once daily, given as single SC injections on Days 1 to 7.
Group B: 5 mg glepaglutide once daily, given as single SC injections on Days 1 to 7.
Group C: 5 mg glepaglutide once weekly, given as single SC injections on Days 1, 8, 15, 22, 29, and 36.
Group D: 10 mg glepaglutide once weekly, given as single SC injections on Days 1, 8, 15, 22, 29, and 36.
Blood samples were collected for the analysis of plasma concentrations of glepaglutide and its primary active metabolites, ZP2469 (ZP18481-34) and ZP2711 (ZP18481-35); samples were assayed using validated analytical methods. The following PK parameter estimates were calculated using standard non-compartmental methods: terminal elimination half-life (t1/2), total body clearance of drug after IV administration (CL; IV dose, parent drug only), apparent total clearance (CL/F; SC doses, parent drug only), volume of distribution at steady state (Vss; IV dose, parent drug only), apparent volume of distribution at steady state (Vss/F; SC doses, parent drug only), volume of distribution (Vz; IV dose, parent drug only), apparent volume of distribution (Vz/F; SC doses, parent drug only), maximum observed plasma concentration (Cmax), area under the plasma concentration-time curve (AUC) over a dosing interval (AUCT), AUC from time zero to infinity (AUCinf), AUC from time zero to the time of the last measurable concentration (AUClast), and time of the maximum observed plasma concentration (tmax). Metabolite exposure (based on Cmax, AUCT, and AUCinf) were determined for each group as a ratio of the 2 primary active metabolites, ZP2469 (ZP18481-34) and ZP2711 (ZP18481-35), relative to the glepaglutide parent drug.
The PK parameters estimates for glepaglutide, ZP2469 (ZP18481-34), and ZP2711 (ZP 18481-35) were listed and summarized using standard descriptive statistics. The primary PK parameters are t1/2 for glepaglutide, ZP2469 (ZP18481-34), and ZP2711 (ZP18481-35); and CL (IV dose), CL/F (SC doses), Vss(IV dose), Vss/F (SC dose), Vz(IV dose), and Vz/F (SC doses) for glepaglutide. The half-life is calculated as LN(2)/ke where ÷ke is estimate from the slope of the terminal part of the LN(concentration) versus time curve, with repeats regressions of LN(concentration) values using the last three points with non-zero concentrations, then the last four points, last five points, etc. Points with a concentration value of zero are not included. Points prior to Cmax are not used. […] 2) ke must be calculated from at least three data points. 3) The estimated slope must be negative, so that its negative ke is positive. The results of the calculations carried out with preliminary data are shown in Table 4, while the results of the calculations with the complete final data set are shown in Table 5. […]

The conditions of data set [3]: cited from earlier work.
The target in a further data set is T1, human GLP-2 receptor (human, UniProt O95838 1-553).
T1 sequence (looked up): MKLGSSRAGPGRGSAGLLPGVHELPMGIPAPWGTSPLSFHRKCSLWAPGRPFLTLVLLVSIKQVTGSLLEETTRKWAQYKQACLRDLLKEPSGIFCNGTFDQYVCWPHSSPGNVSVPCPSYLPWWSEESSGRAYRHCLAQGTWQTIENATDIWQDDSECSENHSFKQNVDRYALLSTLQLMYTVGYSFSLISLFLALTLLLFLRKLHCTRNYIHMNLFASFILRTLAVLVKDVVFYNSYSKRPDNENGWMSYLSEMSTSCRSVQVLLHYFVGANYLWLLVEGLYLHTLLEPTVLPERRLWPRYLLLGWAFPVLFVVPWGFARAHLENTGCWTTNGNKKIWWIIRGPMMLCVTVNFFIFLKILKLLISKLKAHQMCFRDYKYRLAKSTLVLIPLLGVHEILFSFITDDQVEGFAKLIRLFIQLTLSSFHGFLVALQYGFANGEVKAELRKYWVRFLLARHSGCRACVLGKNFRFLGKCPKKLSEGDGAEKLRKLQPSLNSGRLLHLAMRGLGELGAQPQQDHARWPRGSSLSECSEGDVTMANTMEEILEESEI
The data set is described as follows: cell-based or functional assay.

Another data set relates to Wistar rats. Put plainly: Intestinotrophic effects following 26-week chronic exposure in rats. The format is in vivo. The conditions noted are these: in words. As to the method:
Wistar rats were dosed subcutaneously (SC) with vehicle, 1, 3 and 10 mg/kg ZP1848 on a daily basis for 26 weeks. Further sub-groups of control and high-dose animals were allowed a 6-week recovery period following completion of the dosing period. […] The length and the weight of the small and large intestines were measured at necropsy as indicators of intestinotrophic effects and the intestinal tract was evaluated histologically.

The values below come from patent US20250136655A1, “INJECTION PEN FOR SUBCUTANEOUS ADMINISTRATION OF A PEPTIDE” (Zealand Pharma A/S, priority 2017, published 2025).

One may read the half-life as how long it takes for the measured level to halve.

“And” between values parts separate entries of the source, which are not always exact repeats. Equal values may be shown once. Read-outs that look alike come from different tables or passages of the source. Ends that are not written are not given here.

On to “H-HGEGTFSSELATILDALAARDFIAWLIATKITDK-OH [ZP2469]”, for which the half-life was 120 to 408 h in data set [1] (subcutaneous, Phase 2 study, SBS patients, read-out: terminal plasma half-life); 56 h in data set [2] (sc, 10 mg, preliminary results, Group D, 10 mg glepaglutide SC once weekly, after 1 dose, read-out: Half-life ZP2469 (converted)); 94 h in data set [2] (subcutaneous, 1 mg, final results, Group A, 1 mg once daily, after 7 doses, read-out: Half-life of ZP2469 in the interval from 72 to 168 hours post dose (converted)). Besides, the “Half-life of ZP2469 in the interval from 72 to 168 hours post dose” value in data set [2] (final results, Group A, 1 mg once daily, after 7 doses) was 75 h; in data set [2] (final results, Group C, 5 mg once weekly, after 1 dose), 59 h and 75 h; in data set [2] (final results, Group C, 5 mg once weekly, after 6 doses), 57 h; in data set [2] (final results, Group D, 10 mg once weekly, after 1 dose), 54 h and 46 h and 35 h and 60 h and 26 h and 53 h and 43 h and 33 h and 45 h and 38 h; in data set [2] (final results, Group D, 10 mg once weekly, after 6 doses), 59 h and 53 h and 42 h and 48 h. The “Half-life ZP2469” value in data set [2] (preliminary results, Group A, 1 mg glepaglutide SC once daily, after 7 doses) is 20 h; in data set [2] (preliminary results, Group C, 5 mg glepaglutide SC once weekly, after 1 dose), 17 h; in data set [2] (preliminary results, Group D, 10 mg glepaglutide SC once weekly, after 1 dose) it was 38 h and 34 h.

Take “GLP-2 [3-33]: truncated GLP-2 [3-33] (DGSFSDEMNTILDNLAARDFINWLIQTKITD; Glucagon-like peptide 2; UniProt P01275 148-178, looked up, fragment)”: in data set [3] (in humans), the half-life was approximately 0.45 h.

For the molecule Teduglutide (peptide), the EC50 Avg (nM), cAMP AlphaScreen in HEK293 cells expressing hGLP-2R with human GLP-2 receptor amounted to 0.03 nM.

Take “H-HGEGTFSSELATILDALAARDFIAWLIATKITDKKKKKK-NH2 [ZP1848]”: the “mucosal hyperplasia of the duodenum, jejunum and ileum” value in the data set with Wistar rats (1, 3 and 10 mg/kg SC daily for 26 weeks) was “dose-related increase”. Moreover, in the data set with Wistar rats (SC daily for 26 weeks), the “length and weight of the large intestine” value is “slightly increased”.

Consider “Hy-His-Ala-Asp-Gly-Ser-Phe-Ser-Asp-Glu-Met-Asn-Thr-Ile-Leu-Asp-Asn-Leu-Ala-Ala-Arg-Asp-Phe-Ile-Asn-Trp-Leu-Ile-Gln-Thr-Lys-Ile-Thr-Asp-OH [GLP-2 [1-33]]”, for which the half-life result is on record as “around 7 minutes” in data set [3] (in humans) and “seven” in data set [3] (in humans, listed as native GLP-2).

Regarding “H-HGEGTFSSELATILDALAARDFIAWLIATKITDKK-OH [ZP2711]”, the half-life in data set [1] (sc, plasma terminal elimination half-life, per subject, after SC once-daily ZP1848, read-out: Half-life (converted)) was 336 h.

For `CC[C@H](C)[C@H](NC(=O)[C@H](Cc1ccccc1)NC(=O)[C@H](CC(=O)O)NC(=O)[C@H](CCCNC(=N)N)NC(=O)[C@H](C)NC(=O)[C@H](C)NC(=O)[C@H](CC(C)C)NC(=O)[C@H](CC(N)=O)NC(=O)[C@H](CC(=O)O)NC(=O)[C@H](CC(C)C)NC(=O)[C@@H](NC(=O)[C@@H](NC(=O)[C@H](CC(N)=O)NC(=O)[C@H](CCSC)NC(=O)[C@H](CCC(=O)O)NC(=O)[C@H](CC(=O)O)NC(=O)[C@H](CO)NC(=O)[C@H](Cc1ccccc1)NC(=O)[C@H](CO)NC(=O)CNC(=O)[C@H](CC(=O)O)NC(=O)CNC(=O)[C@@H](N)Cc1c[nH]cn1)[C@@H](C)O)[C@@H](C)CC)C(=O)N[C@@H](CC(N)=O)C(=O)N[C@@H](Cc1c[nH]c2ccccc12)C(=O)N[C@@H](CC(C)C)C(=O)N[C@H](C(=O)N[C@@H](CCC(N)=O)C(=O)N[C@H](C(=O)N[C@@H](CCCCN)C(=O)N[C@H](C(=O)N[C@H](C(=O)N[C@@H](CC(=O)O)C(=O)O)[C@@H](C)O)[C@@H](C)CC)[C@@H](C)O)[C@@H](C)CC` [Teduglutide], in data set [3] (in vivo), the half-life result is “about two”.

As for HGEGTFSSELATILDALAARDFIAWLIATKITDKKKKKK-NH2 [ZP1848], the “EC50_Avg (nM), cAMP AlphaScreen in HEK293 cells expressing hGLP-2R” value (from here on “EC50_Avg (nM), cAMP AlphaScreen”) with human GLP-2 receptor worked out at 0.3 nM.

Turning to HGEGTFSSELATILDALAARDFIAWLIATKITDK-OH [ZP2469], the “EC50_Avg (nM), cAMP AlphaScreen” value in the data set with human GLP-2 receptor is 0.052 nM.

HGEGTFSSELATILDALAARDFIAWLIATKITDKK-OH [ZP2711]: the “EC50_Avg (nM), cAMP AlphaScreen” value with human GLP-2 receptor came to 0.072 nM.

For the molecule HGEGTFSSELATILDALAARDFIAWLIATKITDKKK-OH [ZP2949], the “EC50_Avg (nM), cAMP AlphaScreen” value with human GLP-2 receptor was determined as 0.11 nM.

As to HGEGSFSSELSTILDALAARDFIAWLIATKITDKKKKKK-NH2 [ZP1846], in the data set with human GLP-2 receptor, the “EC50_Avg (nM), cAMP AlphaScreen” value came out at 0.26 nM.
